Assay results taken from patent US11040954B1, “CXCR3 receptor agonists” (RECEPTOS LLC, priority 2016, dated 2021).

Target: T1, CXCR3 (Homo sapiens, UniProt P49682)
T1 construct: host or cells: CHO-K1 (cAMP Hunter CHOK1 CXCR3 Gi cell line)
T1 sequence (P49682 1-368): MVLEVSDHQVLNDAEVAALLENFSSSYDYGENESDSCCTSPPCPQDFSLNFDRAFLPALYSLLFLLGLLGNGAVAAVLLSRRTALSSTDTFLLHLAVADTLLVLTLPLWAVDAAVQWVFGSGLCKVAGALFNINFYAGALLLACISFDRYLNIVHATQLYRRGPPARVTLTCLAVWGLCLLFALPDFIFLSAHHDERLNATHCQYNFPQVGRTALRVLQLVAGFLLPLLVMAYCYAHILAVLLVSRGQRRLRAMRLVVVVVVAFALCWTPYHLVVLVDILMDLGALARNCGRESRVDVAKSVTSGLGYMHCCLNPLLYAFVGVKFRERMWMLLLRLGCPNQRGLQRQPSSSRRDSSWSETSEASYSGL
Assay: CXCR3 cAMP agonist assay (cAMP Hunter CHOK1 CXCR3 Gi cell line, forskolin-stimulated, HitHunter cAMP detection)
Type: cell-based
Details: cAMP Hunter CHOK1 CXCR3 Gi cells, 20 μM forskolin, 30 minutes; read-out: Activity (CXCR3 cAMP agonist assay compound EC50)
Procedure, shortened: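 Agonist activity was measured as suppression of forskolin (20 μM)-induced cAMP, read by luminescent enzyme-fragment complementation with a cAMP standard curve and CXCL11 defining full efficacy. Assay used 50,000 CXCR3 Gi CHOK1 cells/well in pH 7.4 HEPES-buffered HBSS with 0.1% BSA, compound 0-10 μM over 12 points, 30 min incubation.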

EC50 | SMILES
< 50 nM | O=C(CCC(=O)N1Cc2ccccc2C[C@H]1C(=O)N[C@@H](CCN1CCC(O)CC1)C(=O)Nc1ccc2c(c1)CCC2)c1ccccc1 [Compound 28-1, (S)—N—((S)-1-((2,3-dihydro-1H-inden-5-yl)amino)-4-(4-hydroxypiperidin-1-yl)-1-oxobutan-2-yl)-2-(4-oxo-4-phenylbutanoyl)-1,2,3,4-tetrahydroisoquinoline-3-carboxamide]
50 to 250 nM | NCC[C@H](NC(=O)[C@@H]1Cc2ccccc2CN1C(=O)CCC(=O)c1ccccc1)C(=O)Nc1cc(F)c(Cl)c(Cl)c1 [Compound 27-6]
50 to 250 nM | NCC[C@H](NC(=O)[C@@H]1Cc2ccccc2CN1C(=O)CCC(=O)c1ccccc1)C(=O)Nc1cc2c(cc1O)CCC2 [Compound 2-74]
50 to 250 nM | Cc1cc(NC(=O)[C@H](CCN2CCC(F)(F)CC2)NC(=O)[C@@H]2Cc3ccccc3CN2C(=O)CCC(=O)c2ccccc2)ccc1Cl [Compound 17-4]
< 50 nM | Cc1cc(NC(=O)[C@H](CCNS(C)(=O)=O)NC(=O)[C@@H]2Cc3ccccc3CN2C(=O)CCC(=O)N2CCCCC2)ccc1Cl [Compound 32-2]
< 50 nM | Cc1cc(NC(=O)[C@H](CCN)NC(=O)[C@@H]2Cc3ccccc3CN2C(=O)CCC(=O)N2[C@H](C)CCC[C@H]2C)ccc1Cl [Compound 12-141]
50 to 250 nM | Cc1cc(NC(=O)[C@H](CC(N)=O)NC(=O)[C@@H]2Cc3ccccc3CN2C(=O)CCC(=O)c2ccccc2)ccc1Cl [Compound 3-12]
< 50 nM | Cc1c(F)cc(NC(=O)[C@H](CCN)NC(=O)[C@@H]2Cc3ccccc3CN2C(=O)CCC(=O)c2ccccc2)cc1Cl [Compound 4-19]
> 500 nM | COc1cc(F)ccc1NC(=O)[C@H](CCN)NC(=O)[C@@H]1Cc2ccccc2CN1C(=O)CCC(=O)c1ccccc1 [Compound 13-6]
50 to 250 nM | CN(C)[C@H]1CCN(C(=O)CCC(=O)N2Cc3ccccc3C[C@H]2C(=O)N[C@@H](CCN)C(=O)Nc2ccc(Cl)c(Cl)c2F)C1 [Compound 15-30]
50 to 250 nM | Cc1cc(NC(=O)[C@H](CCCCN)NC(=O)[C@@H]2Cc3ccccc3CN2C(=O)CCC(=O)c2cccc(N(C)C)c2)ccc1Cl [Compound 7-6]
< 50 nM | O=C(CCC(=O)N1Cc2ccccc2C[C@H]1C(=O)NC1(C(=O)Nc2ccc3c(c2)CCC3)CCNCC1)c1ccccc1 [Compound 13-1]
< 50 nM | N#Cc1ccccc1NC(=O)[C@H](CCN)NC(=O)[C@@H]1Cc2ccccc2CN1C(=O)CCC(=O)c1ccccc1 [Compound 27-4]
< 50 nM | CN(C(=O)CCC(=O)N1Cc2ccccc2C[C@H]1C(=O)N[C@@H](CCN)C(=O)Nc1ccc(Cl)c(Cl)c1F)C1CCCC1 [Compound 15-36]
< 50 nM | Cc1cc(NC(=O)[C@H](CCN)NC(=O)[C@@H]2Cc3ccccc3CN2C(=O)CCC(=O)N2CCN(C)C(C)(C)C2)ccc1Cl [Compound 12-131]
250 to 500 nM | COc1cccc(NC(=O)[C@H](CCCCN)NC(=O)[C@@H]2Cc3ccccc3CN2C(=O)CCC(=O)c2ccccc2)c1 [Compound 1-11]
< 50 nM | CC(C)CC1CCCCN1C(=O)CCC(=O)N1Cc2ccccc2C[C@H]1C(=O)N[C@@H](CCN)C(=O)Nc1ccc(Cl)c(Cl)c1F (stereo partly drawn) [Compound 15-20]
< 50 nM | COCC1CCCCN1C(=O)CCC(=O)N1Cc2ccccc2C[C@H]1C(=O)N[C@@H](CCN)C(=O)Nc1ccc(Cl)c(Cl)c1F (stereo partly drawn) [Compound 15-16]
< 50 nM | Cc1cc(NC(=O)[C@H](CCN)NC(=O)[C@@H]2Cc3ccccc3CN2C(=O)CCC(=O)N(C)CCC(C)(C)C)ccc1Cl [Compound 12-98]
250 to 500 nM | Cc1nc2ccc(NC(=O)[C@H](CCN)NC(=O)[C@@H]3Cc4ccccc4CN3C(=O)CCC(=O)c3ccccc3)cc2s1 [Compound 2-64]
< 50 nM | Cc1ccc(NC(=O)[C@H](CCCNC(=N)N)NC(=O)[C@@H]2Cc3ccccc3CN2C(=O)CCC(=O)c2ccccc2)cc1C [Compound 1-33]
50 to 250 nM | COc1cc(C(F)(F)F)c(C)cc1NC(=O)[C@H](CCN)NC(=O)[C@@H]1Cc2ccccc2CN1C(=O)CCC(=O)c1ccccc1 [Compound 2-76]
250 to 500 nM | CN1CN(C(=O)CCC(=O)N2Cc3ccccc3C[C@H]2C(=O)N[C@@H](CCN)C(=O)Nc2ccc(Cl)c(Cl)c2F)CC1=O [Compound 15-45]
< 50 nM | Cc1cc(NC(=O)[C@H](CCN)NC(=O)[C@@H]2Cc3ccccc3CN2C(=O)CCC(=O)N2CCC[C@H]2CF)ccc1Cl [Compound 12-139]
< 50 nM | CO[C@H]1CCCN(C(=O)CCC(=O)N2Cc3ccccc3C[C@H]2C(=O)N[C@@H](CCN)C(=O)Nc2ccc(Cl)c(Cl)c2F)C1 [Compound 15-26]
50 to 250 nM | COc1cc(C)c(F)cc1NC(=O)[C@H](CCN)NC(=O)[C@@H]1Cc2ccccc2CN1C(=O)CCC(=O)c1ccccc1 [Compound 2-71]

EC50 | SMILES
< 50 nM | NCC[C@H](NC(=O)[C@@H]1Cc2ccccc2CN1C(=O)CCC(=O)c1ccccc1)C(=O)Nc1cnc2ccccc2c1 [Compound 2-44]
50 to 250 nM | Cc1ccc(Cl)c(NC(=O)[C@H](CCN)NC(=O)[C@@H]2Cc3ccccc3CN2C(=O)CCC(=O)c2ccccc2)c1 [Compound 2-35]
> 500 nM | Cc1cc(NC(=O)[C@H](CCN)NC(=O)[C@@H]2Cc3ccccc3CN2C(=O)CCC(=O)N2CC3CCC2CN3C)ccc1Cl (stereo partly drawn) [Compound 12-146]
50 to 250 nM | CC(C)(C)CC1CCCCN1C(=O)CCC(=O)N1Cc2ccccc2C[C@H]1C(=O)N[C@@H](CCN)C(=O)Nc1ccc(Cl)c(Cl)c1F (stereo partly drawn) [Compound 15-14]
50 to 250 nM | NCC[C@H](NC(=O)[C@@H]1Cc2ccccc2CN1C(=O)CCC(=O)c1ccccc1)C(=O)Nc1ccc(Cl)c(C(F)(F)F)c1 [Compound 2-4]
< 50 nM | CCC1CN(C(=O)CCC(=O)N2Cc3ccccc3C[C@H]2C(=O)N[C@@H](CCN)C(=O)Nc2ccc(Cl)c(C)c2)CCN1C (stereo partly drawn) [Compound 12-104]
< 50 nM | Cc1cc(NC(=O)[C@H](CCN)NC(=O)[C@@H]2Cc3ccccc3CN2C(=O)CCC(=O)N2CCCC2(C)C)ccc1Cl [Compound 12-31]
< 50 nM | CC1(C)CCCN(C(=O)CCC(=O)N2Cc3ccccc3C[C@H]2C(=O)N[C@@H](CCN2CCC(O)CC2)C(=O)Nc2ccc(Cl)c(Cl)c2F)C1 [Compound 26-3]
< 50 nM | CC[C@@H]1CCCCN1C(=O)CCC(=O)N1Cc2ccccc2C[C@H]1C(=O)N[C@@H](CCN)C(=O)Nc1ccc(Cl)c(C)c1 [Compound 12-112]
< 50 nM | Cc1cc(NC(=O)[C@H](CCN)NC(=O)[C@@H]2Cc3ccccc3CN2C(=O)CCC(=O)N2CCCC(C)(C)C2)ncc1Cl [Compound 12-155]
< 50 nM | Cc1cc(NC(=O)[C@H](CCCNC(=N)N)NC(=O)[C@@H]2Cc3ccccc3CN2C(=O)CCC(=O)c2ccccc2)ccc1Cl [Compound 1-32]
< 50 nM | CN(CC(C)(C)C)C(=O)CCC(=O)N1Cc2ccccc2C[C@H]1C(=O)N[C@@H](CCN)C(=O)Nc1ccc(Cl)c(Cl)c1F [Compound 15-43]
50 to 250 nM | Cc1cc(NC(=O)[C@H](CCN)NC(=O)[C@@H]2Cc3ccccc3CN2C(=O)CCC(=O)N2CCC[C@@H]2c2ccccc2)ccc1Cl [Compound 12-132]
< 50 nM | CCN(C(=O)CCC(=O)N1Cc2ccccc2C[C@H]1C(=O)N[C@@H](CCN)C(=O)Nc1ccc(Cl)c(Cl)c1F)C(C)(C)C [Compound 15-35]
250 to 500 nM | Cc1cc(NC(=O)[C@H](CCN)NC(=O)[C@@H]2Cc3ccccc3CN2C(=O)CCC(=O)N2CC(F)C2)ccc1Cl [Compound 12-19]
50 to 250 nM | Cc1cc(NC(=O)C(CC2CCNCC2)NC(=O)[C@@H]2Cc3ccccc3CN2C(=O)CCC(=O)c2ccccc2)ccc1Cl (mixture of isomers) [Compound 4-11]
< 50 nM | O=C(CCC(=O)N1Cc2ccccc2CC1C(=O)NC(CCN1CCC(F)CC1)C(=O)Nc1ccc(Cl)c(Cl)c1F)c1ccccc1 (racemic) [Compound 23-3]
50 to 250 nM | Cc1cc(NC(=O)[C@H](CCN)NC(=O)[C@@H]2Cc3ccccc3CN2C(=O)CCC(=O)N2CCC(c3ccccc3)C2)ccc1Cl (stereo partly drawn) [Compound 12-54]
50 to 250 nM | N#Cc1ccc2c(c1)CN(C(=O)CCC(=O)c1ccccc1)[C@H](C(=O)N[C@@H](CCN)C(=O)Nc1ccc(Cl)c(Cl)c1F)C2 [Compound 30-1, (S)—N—((S)-4-amino-1-((3,4-dichloro-2-fluorophenyl)amino)-1-oxobutan-2-yl)-7-cyano-2-(4-oxo-4-phenylbutanoyl)-1,2,3,4-tetrahydroisoquinoline-3-carboxamide]
50 to 250 nM | Cc1cc(NC(=O)[C@H](Cc2ccccn2)NC(=O)[C@@H]2Cc3ccccc3CN2C(=O)CCC(=O)c2ccccc2)ccc1Cl [Compound 3-5]
< 50 nM | CC1(C)CCCCN1C(=O)CCC(=O)N1Cc2ccccc2C[C@H]1C(=O)N[C@H](CCN1CCC(O)CC1)C(=O)Nc1ccc(Cl)c(Cl)c1F [Compound 26-2]
< 50 nM | CC1(C)CCN(C(=O)CCC(=O)N2Cc3cc(F)ccc3C[C@H]2C(=O)N[C@@H](CCN)C(=O)Nc2ccc(Cl)c(Cl)c2F)CC1 [Compound 15-60]
< 50 nM | Cc1cc(NC(=O)[C@H](CCN)NC(=O)[C@@H]2Cc3ccccc3CN2C(=O)CCC(=O)Nc2ccccc2)ccc1Cl [Compound 12-81]
50 to 250 nM | CCc1c(NC(=O)[C@H](CCN)NC(=O)[C@@H]2Cc3ccccc3CN2C(=O)CCC(=O)c2ccccc2)ccc(Cl)c1Cl [Compound 2-48]
250 to 500 nM | Cc1ccc(NC(=O)[C@H](CCN)NC(=O)[C@@H]2Cc3ccccc3CN2C(=O)CCC(=O)c2ccccc2)c(C(F)(F)F)c1 [Compound 14-13]
